Among the data in patent publication US6262051A, “Fungicidal methoximinomethyldioxazines” (Bayer Aktiengesellschaft, priority 1997, dated 2001) are chromatographic logP, pest or weed control and Efficacy in % values, retold here.

Test system in the first series: not listed separately
In words: HPLC logP. Format: physicochemical.
Details: not given
One may read the chromatographic logP as lipophilicity estimated from chromatographic retention. Read a low chromatographic logP as a more hydrophilic compound. For the compound `CON=C(C1=NOCCO1)c1ccccc1Oc1nccc(Cl)n1` [II-1, [2-(4-chloro-pyrimidin-2-yloxy)-phenyl]-(5,6-dihydro-[1,4,2]dioxazin-3-yl)-methanone O-methyl oxime], the chromatographic logP was 2.

`CON=C(C1=NOCCO1)c1ccccc1Oc1nccc(OC(CF)CF)n1` [Example 1, (5,6-dihydro-[1,4,2]dioxazin-3-yl)-{2-[4-(2-fluoro-1-fluoromethyl-ethoxy)-pyrimidin-2-yloxy]-phenyl}-methanone O-methyl oxime] gave a chromatographic logP of 2.2. Still for that read-out and setting: as for `CON=C(C1=NOCCO1)c1ccccc1Oc1nccc(OCC(Cl)(Cl)Cl)n1` [Example 2, (5,6-dihydro-[1,4,2]dioxazin-3-yl)-{2-[4-(2,2,2-trichloroethoxy)-pyrimidine-2-yloxy]-phenyl}-methanone O-methyl oxime], the figure is 3.1.

Still in this series, the particulars now being: Table 1.
With `CCC(C)Oc1ccnc(Oc2ccccc2C(=NOC)C2=NOCCO2)n1` (stereo not drawn) [Example 29], the chromatographic logP came to 2.9. Still for that read-out and setting: as for `CON=C(C1=NOCCO1)c1ccccc1Oc1nccc(OCCF)n1` [Example 38], the figure is 2. The same measure, in the same setting: under `CON=C(C1=NOCCO1)c1ccccc1Oc1nccc(OCC2CCCC2)n1` [Example 58] stands 3.4; under `C/C=C\COc1ccnc(Oc2ccccc2C(=NOC)C2=NOCCO2)n1` [Example 166], 2.7. `CON=C(C1=NOCCO1)c1ccccc1Oc1nccc(OCCc2ccccc2F)n1` [Example 17] had a chromatographic logP of 3.2. The compound `CON=C(C1=NOCCO1)c1ccccc1Oc1nccc(OCCCCCc2ccccc2)n1` [Example 159] returned a chromatographic logP of 4.1. As to `CON=C(C1=NOCCO1)c1ccccc1Oc1nccc(OCCC(F)(F)F)n1` [Example 158], the chromatographic logP was found to be 2.6. The compound `CCCCCOc1ccnc(Oc2ccccc2C(=NOC)C2=NOCCO2)n1` [Example 14] yielded a chromatographic logP of 3.3. Still for that read-out and setting: as for `CON=C(C1=NOCCO1)c1ccccc1Oc1nccc(NCCc2ccccc2)n1` [Example 139], the figure is 2.4; as for `CON=C(C1=NOCCO1)c1ccccc1Oc1nccc(OC2CCCC2)n1` [Example 54], 3; as for `CON=C(C1=NOCCO1)c1ccccc1Oc1nccc(OCC2(C)CC2(Cl)Cl)n1` (stereo not drawn) [Example 172], 3.3. Still for that read-out and setting: as for `CON=C(C1=NOCCO1)c1ccccc1Oc1nccc(OCC(Br)(Br)Br)n1` [Example 11], the figure is 3.2; as for `CCCCCCCCCCOc1ccnc(Oc2ccccc2C(=NOC)C2=NOCCO2)n1` [Example 36], 5.6; as for `CON=C(C1=NOCCO1)c1ccccc1Oc1nccc(OCCc2ccc(Cl)cc2)n1` [Example 26], 3.5. Regarding `CON=C(C1=NOCCO1)c1ccccc1Oc1nccc(OC2CCCCC2)n1` [Example 27], the chromatographic logP stood at 3.3. Compound `CON=C(C1=NOCCO1)c1ccccc1Oc1nccc(OCc2ccccc2)n1` [Example 12] came in with a chromatographic logP of 2.9. For `CON=C(C1=NOCCO1)c1ccccc1Oc1nccc(OCCc2ccccc2C(F)(F)F)n1` [Example 20], the chromatographic logP was 3.6. On to `CON=C(C1=NOCCO1)c1ccccc1Oc1nccc(OCC(Cl)Cl)n1` [Example 10], for which the chromatographic logP came to 2.7. Regarding `CON=C(C1=NOCCO1)c1ccccc1Oc1nccc(OCC=Cc2ccccc2)n1` [Example 161], the chromatographic logP was found to be 3.3. The compound `C/C=C/C=C/COc1ccnc(Oc2ccccc2C(=NOC)C2=NOCCO2)n1` [Example 165] showed a chromatographic logP of 3.2.

On to `CCCCOc1ccnc(Oc2ccccc2C(=NOC)C2=NOCCO2)n1` [Example 9], for which the chromatographic logP turned out to be 3.

In turn, `CCCCCCCCCOc1ccnc(Oc2ccccc2C(=NOC)C2=NOCCO2)n1` [Example 35] showed a chromatographic logP of 5.1.

As for `CON=C(C1=NOCCO1)c1ccccc1Oc1nccc(OCCc2ccc(OC)cc2)n1` [Example 98], the chromatographic logP came out at 3. `CON=C(C1=NOCCO1)c1ccccc1Oc1nccc(OCc2ccc(OC)cc2)n1` [Example 156] had a chromatographic logP of 2.8. The same measure, in the same setting: as for `CON=C(C1=NOCCO1)c1ccccc1Oc1nccc(OCc2ccccc2F)n1` [Example 15], the figure is 2.9; as for `CON=C(C1=NOCCO1)c1ccccc1Oc1nccc(OCc2ccc(SC)cc2)n1` [Example 168], 2.1; as for `CON=C(C1=NOCCO1)c1ccccc1Oc1nccc(OC(C)c2ccccc2)n1` (stereo not drawn) [Example 21], 3.1. As for `CON=C(C1=NOCCO1)c1ccccc1Oc1nccc(OCC(F)(F)C(F)(F)F)n1` [Example 8], the chromatographic logP turned out to be 3.1. `CON=C(C1=NOCCO1)c1ccccc1Oc1nccc(OC(C(F)(F)F)C(F)(F)F)n1` [Example 42]: the chromatographic logP came out at 3.3. For `CON=C(C1=NOCCO1)c1ccccc1Oc1nccc(OCc2cccc(F)c2)n1` [Example 19], the chromatographic logP is 3.

`CON=C(C1=NOCCO1)c1ccccc1Oc1nccc(OCC(F)(F)C(F)F)n1` [Example 157]: the chromatographic logP turned out to be 2.6. On the same count and under the same terms, under `CON=C(C1=NOCCO1)c1ccccc1Oc1nccc(OC(C)C(F)(F)F)n1` (stereo not drawn) [Example 4] stands 2.9; under `CON=C(C1=NOCCO1)c1ccccc1Oc1nccc(N(C)Cc2ccccc2)n1` [Example 152], 1.84. `CON=C(C1=NOCCO1)c1ccccc1Oc1nccc(OCc2ccc(C)c(Cl)c2)n1` [Example 86] registered a chromatographic logP of 3.7. `CON=C(C1=NOCCO1)c1ccccc1Oc1nccc(SCc2ccccc2)n1` [Example 120] showed a chromatographic logP of 3.14. Regarding `CON=C(C1=NOCCO1)c1ccccc1Oc1nccc(NCc2ccccc2)n1` [Example 136], the chromatographic logP was found to be 1.6. The same measure, in the same setting: as for `C#CCOc1ccnc(Oc2ccccc2C(=NOC)C2=NOCCO2)n1` [Example 160], the figure is 2.1; as for `CON=C(C1=NOCCO1)c1ccccc1Oc1nccc(OCC2C(C=C(C)C)C2(C)C)n1` (stereo not drawn) [Example 162], 4.3. The compound `CON=C(C1=NOCCO1)c1ccccc1Oc1nccc(OCCc2ccccc2)n1` [Example 25] displayed a chromatographic logP of 3.3. `CON=C(C1=NOCCO1)c1ccccc1Oc1nccc(OC(C)c2ccccc2Cl)n1` (stereo not drawn) [Example 24] came in with a chromatographic logP of 3.4. The compound `CON=C(C1=NOCCO1)c1ccccc1Oc1nccc(SC)n1` [Example 108] had a chromatographic logP of 2.2. The compound `CON=C(C1=NOCCO1)c1ccccc1Oc1nccc(OCc2ccc(C)cc2)n1` [Example 16] yielded a chromatographic logP of 3.2.

Take `CON=C(C1=NOCCO1)c1ccccc1Oc1nccc(OCc2ccc(Cl)cc2)n1` [Example 22]: the chromatographic logP amounted to 3.3. The compound `CCCCCCCOc1ccnc(Oc2ccccc2C(=NOC)C2=NOCCO2)n1` [Example 18] registered a chromatographic logP of 4.2. The compound `C=C(Br)COc1ccnc(Oc2ccccc2C(=NOC)C2=NOCCO2)n1` [Example 169] had a chromatographic logP of 2.7. Take `CON=C(C1=NOCCO1)c1ccccc1Oc1nccc(OC(C)C)n1` [Example 7]: the chromatographic logP was found to be 2.5. In the case of `CCCCCCCCCCCCCCCCOc1ccnc(Oc2ccccc2C(=NOC)C2=NOCCO2)n1` [Example 163], the chromatographic logP is greater than 7.4. In turn, `CON=C(C1=NOCCO1)c1ccccc1Oc1nccc(NC(C)c2ccccc2)n1` (stereo not drawn) [Example 171] came in with a chromatographic logP of 1.8.

For the compound `CON=C(C1=NOCCO1)c1ccccc1Oc1nccc(OCC2CC2)n1` [Example 59], the chromatographic logP was 2.5. `CON=C(C1=NOCCO1)c1ccccc1Oc1nccc(OCCCc2ccccc2)n1` [Example 101] gave a chromatographic logP of 3.4. The compound `C=CC(C)Oc1ccnc(Oc2ccccc2C(=NOC)C2=NOCCO2)n1` (stereo not drawn) [Example 164] registered a chromatographic logP of 2.7. In the case of `C=CCOc1ccnc(Oc2ccccc2C(=NOC)C2=NOCCO2)n1` [Example 48], the chromatographic logP was 2.4. Regarding `CCCCCCCCOc1ccnc(Oc2ccccc2C(=NOC)C2=NOCCO2)n1` [Example 23], the chromatographic logP came out at 4.7.

The next series relates to Plasmopara viticola. In words: Example D: Plasmopara test (grapevine)/protective. Format: in vivo. Particulars: Plasmopara viticola, 144 h, protective, 6 days after inoculation, vs untreated control, read-out: Efficacy in %. How it is done: Plasmopara test (grapevine)/protective Solvent: 47 parts by weight of acetone Emulsifier: 3 parts by weight of alkylaryl polyglycol ether To produce a suitable preparation of active compound, 1 part by weight of active compound is mixed with the stated amount of solvent and emulsifier, and the concentrate is diluted with water to the desired concentration. To test for protective activity, young plants are sprayed with the preparation of active compound at the stated application rate. […]
As to `CCCCCOc1ccnc(Oc2ccccc2C(=NOC)C2=NOCCO2)n1` [Example 14], the pest or weed control at 100 g/ha is no more than 100%. For the compound `CON=C(C1=NOCCO1)c1ccccc1Oc1nccc(OCC(Br)(Br)Br)n1` [Example 11], the pest or weed control at 100 g/ha is no more than 100%. As for `CON=C(C1=NOCCO1)c1ccccc1Oc1nccc(OCc2ccccc2)n1` [Example 12], the pest or weed control at 100 g/ha was no more than 100%.

With `CON=C(C1=NOCCO1)c1ccccc1Oc1nccc(OCC(Cl)Cl)n1` [Example 10], the pest or weed control at 100 g/ha was no more than 100%. On to `CON=C(C1=NOCCO1)c1ccccc1Oc1nccc(OC(CF)CF)n1` [Example 1, (5,6-dihydro-[1,4,2]dioxazin-3-yl)-{2-[4-(2-fluoro-1-fluoromethyl-ethoxy)-pyrimidin-2-yloxy]-phenyl}-methanone O-methyl oxime], for which the pest or weed control at 100 g/ha was no more than 100%. On the same count and under the same terms, under `CCCCOc1ccnc(Oc2ccccc2C(=NOC)C2=NOCCO2)n1` [Example 9] stands no more than 100%; under `CON=C(C1=NOCCO1)c1ccccc1Oc1nccc(OCC(F)(F)C(F)(F)F)n1` [Example 8], no more than 100%; under `CON=C(C1=NOCCO1)c1ccccc1Oc1nccc(OC(C)C)n1` [Example 7], no more than 100%. Turning to `CON=C(C1=NOCCO1)c1ccccc1Oc1nccc(OCC(Cl)(Cl)Cl)n1` [Example 2, (5,6-dihydro-[1,4,2]dioxazin-3-yl)-{2-[4-(2,2,2-trichloroethoxy)-pyrimidine-2-yloxy]-phenyl}-methanone O-methyl oxime], the pest or weed control at 100 g/ha was no more than 100%.

The same series, now with this note: protective, 100 g/ha, 6 days after inoculation, vs untreated control.
As to `CON=C(C1=NOCCO1)c1ccccc1Oc1nccc(OCC(Br)(Br)Br)n1` [drawing 37], the Efficacy in % worked out at 100%. In turn, `CON=C(C1=NOCCO1)c1ccccc1Oc1nccc(OCc2ccccc2)n1` [drawing 38] displayed an Efficacy in % of 100%. With `CCCCCOc1ccnc(Oc2ccccc2C(=NOC)C2=NOCCO2)n1` [drawing 40], the Efficacy in % is reported as 99%. Same read-out and setting: under `CCCCCCOc1ccnc(Oc2ccccc2C(=NOC)C2=NOCCO2)n1` [drawing 39] stands 100%.

In the next series the test system is Sphaerotheca fuliginea. Put plainly: Example E: Sphaerotheca test (cucumber)/protective. Format: in vivo. As to conditions: protective, 100 g/ha, 10 days after inoculation, vs untreated control. As for the experimental part: Sphaerotheca test (cucumber)/protective Solvent: 47 parts by weight of acetone Emulsifier: 3 parts by weight of alkylaryl polyglycol ether To produce a suitable preparation of active compound, 1 part by weight of active compound is mixed with the stated amount of solvent and emulsifier, and the concentrate is diluted with water to the desired concentration. To test for protective activity, young plants are sprayed with the preparation of active compound at the stated application rate. After the spray coating is dried on, the plants are inoculated with an aqueous spore suspension of Sphaerotheca fuliginea.
For `CON=C(C1=NOCCO1)c1ccccc1Oc1nccc(OCC(F)(F)C(F)(F)F)n1` [drawing 43], the Efficacy in % came to 92%. As to `CON=C(C1=NOCCO1)c1ccccc1Oc1nccc(OCC(F)(F)C(F)(F)F)n1` [Example 8], the Efficacy in % entry was “more than 90%”.

Turning to `CON=C(C1=NOCCO1)c1ccccc1Oc1nccc(OCC(Cl)(Cl)Cl)n1` [Example 2, (5,6-dihydro-[1,4,2]dioxazin-3-yl)-{2-[4-(2,2,2-trichloroethoxy)-pyrimidine-2-yloxy]-phenyl}-methanone O-methyl oxime], the Efficacy in % result was “more than 90%”.
